The source made the active and inactive calls.

A word on the EC50: it is the concentration that produces a half-maximal response. Broadly, the AC50 is the concentration giving half of the maximal activity seen. Usually IC50 stands for the concentration at which inhibition is half-maximal.

A short description of assay [1]: inhibitors of firefly luciferase expression or activity, dose response, H4 neuroglioma cells, luminescence (AID 1990). It counts as functional, cell-based.
A short description of assay [2]: Luminescence Cell-Based Dose Response HTS to Identify Inhibitors of 5'UTR Stem-Loop Driven Prion Protein mRNA Translation in H4 Neuroglioblastoma Cells. [Related pubchem assays: 1827 (Project Summary), 1813 (Primary HTS)]. It counts as functional.
Assay [3] can be described thus: inhibitors of SNCA 5'UTR-driven reporter translation, confirmation, H4 neuroglioma cells, luminescence (AID 1988). It counts as functional, cell-based.
The test system of assay [4] is INS1. Description: beta cell apoptosis inhibitors, cytokine rescue, dose response, luminescence, retest (AID 449756).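 Further: cell death triggered by IL-1 beta plus TNF-alpha plus IFN-gamma mixture; protective hits raise ATP signal compared with cytokine alone wells.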 Type of assay: functional, cell-based. As to conditions: Rattus norvegicus.
For assay [5], the system named is HeLa. Description: HeLa cell cytotoxicity, dose response, cytotoxicity control, ATP luminescence, cherry-pick samples (AID 687004). Type of assay: functional, cell-based. As to conditions: Homo sapiens.
A short description of assay [6]: miR-122 activators in hepatoma reporter cells, dose response, cell-based, Huh7 psiCHECK-miR122, Renilla luciferase, cherry-picked (AID 651956).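 Further: huh7 hepatoma cells stably carrying a psiCHECK-2 miR-122 sensor plasmid; renilla luciferase signal reporting endogenous miR-122 activity after 48 h compound exposure.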 Type of assay: functional.
In assay [7] the target is T1, DNA repair protein RAD52 homolog (Homo sapiens, UniProt P43351).
T1 sequence (P43351 whole entry): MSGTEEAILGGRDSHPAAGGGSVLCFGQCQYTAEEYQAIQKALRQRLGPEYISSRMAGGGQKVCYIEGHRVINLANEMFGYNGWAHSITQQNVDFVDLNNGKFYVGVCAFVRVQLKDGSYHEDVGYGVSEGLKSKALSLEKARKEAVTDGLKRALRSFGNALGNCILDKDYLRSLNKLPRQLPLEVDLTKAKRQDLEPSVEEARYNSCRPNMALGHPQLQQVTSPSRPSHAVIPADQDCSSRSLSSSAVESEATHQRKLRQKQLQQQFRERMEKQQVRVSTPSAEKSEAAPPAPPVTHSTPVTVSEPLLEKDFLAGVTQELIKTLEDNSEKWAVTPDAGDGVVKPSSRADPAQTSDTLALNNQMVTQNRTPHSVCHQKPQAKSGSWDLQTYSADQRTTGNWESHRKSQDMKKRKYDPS
Type of assay: functional, biochemical.

Assay [8] in a line: HEK293T cytotoxicity, dose response, cytotoxicity control for miR-122 modulator project, cell-based, inhibitor set, cherry-pick, set 2 (AID 720697). Type of assay: functional.
Assay [9] can be described thus: HEK293T cytotoxicity, dose response, cytotoxicity control for miR-122 modulator project, cell-based, activator set, cherry-pick (AID 720690).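 Further: HEK293T human cells scored for general mammalian cytotoxicity.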 It counts as functional.
In assay [10] the target is Beta-galactosidase (Escherichia coli, UniProt Q8VNN2). The assay is described as follows: Dose response counterscreen for EBI2 assay utilizing the enzyme, b-galactosidase. It counts as functional. A general note: A counterscreen serves to expose hits that act by an unwanted route or on another target.
Assay [11] has as its target T2, Beta-2 adrenergic receptor (Homo sapiens, UniProt P07550). Description: beta2AR agonists driving receptor internalization, dose response, cell-based, FAP fluorogen, flow cytometry, cherry pick 1 (AID 588763). It counts as functional. In general terms: Flow cytometry measures light scatter and fluorescence of single cells or particles in a stream.
In assay [12] the target is T2, Beta-2 adrenergic receptor. Description: Dose response for HTS for Beta-2AR agonists via FAP method from Powderset3. Type of assay: functional.
The target of assay [13] is Prothrombin (Homo sapiens, UniProt P00734). Description: Thrombin 1536 HTS Dose Response Confirmation. [Related pubchem assays: 1046 (Thrombin 1536 HTS; hits were confirmed in this assay)]. Type of assay: functional.
Assay [14] concerns the target Broad substrate specificity ATP-binding cassette transporter ABCG2 (Homo sapiens, UniProt Q9UNQ0). Description: ABCG2 efflux pump inhibitors, dose response, Ig-MXP3 cells, flow cytometry (AID 1690). It counts as functional.
Assay [15] in a line: AlphaScreen signal interference compounds, dose response, artefact control for ARNT-TACC3 interaction inhibitor project, biochemical, luminescence, cherry-pick (AID 651705).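 Further: AlphaScreen bead proximity signal that flags compounds interfering with the detection technology; potency reflects signal decrease which marks the compound as an assay artifact.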 It counts as functional. A general note: Bead proximity is the source of the signal in Alpha formats.
The test system of assay [16] is Vero. The assay is described as follows: Vero cell toxicity, dose response, cytotoxicity control, plate reader, cherry-pick samples (AID 687020). Type of assay: functional, cell-based. The note with it: Chlorocebus sabaeus.
Assay [17] deals with BHK-21. Description: BHK-21 cell toxicity, dose response, cytotoxicity control, plate reader, cherry-pick samples (AID 687030). Type of assay: functional, cell-based. As to conditions: Mesocricetus auratus.
For assay [18], the system named is A549. Description: A549 cell toxicity, dose response, cytotoxicity control, plate reader, cherry-pick samples (AID 687028). As to conditions: Homo sapiens. Type of assay: functional, cell-based.

T2 sequence (P07550 whole entry): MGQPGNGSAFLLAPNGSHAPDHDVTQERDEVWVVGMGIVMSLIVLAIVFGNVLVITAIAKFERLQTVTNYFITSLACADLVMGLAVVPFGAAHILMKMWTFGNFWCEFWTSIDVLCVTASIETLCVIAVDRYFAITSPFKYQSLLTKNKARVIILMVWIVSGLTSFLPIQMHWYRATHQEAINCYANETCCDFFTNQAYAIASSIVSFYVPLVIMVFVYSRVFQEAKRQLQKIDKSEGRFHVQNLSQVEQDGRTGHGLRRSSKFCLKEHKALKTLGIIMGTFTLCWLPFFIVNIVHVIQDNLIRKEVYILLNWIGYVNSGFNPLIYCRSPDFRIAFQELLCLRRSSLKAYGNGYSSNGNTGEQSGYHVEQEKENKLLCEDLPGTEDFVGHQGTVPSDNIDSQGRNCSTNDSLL
Beta-galactosidase, sequence (Q8VNN2 whole entry): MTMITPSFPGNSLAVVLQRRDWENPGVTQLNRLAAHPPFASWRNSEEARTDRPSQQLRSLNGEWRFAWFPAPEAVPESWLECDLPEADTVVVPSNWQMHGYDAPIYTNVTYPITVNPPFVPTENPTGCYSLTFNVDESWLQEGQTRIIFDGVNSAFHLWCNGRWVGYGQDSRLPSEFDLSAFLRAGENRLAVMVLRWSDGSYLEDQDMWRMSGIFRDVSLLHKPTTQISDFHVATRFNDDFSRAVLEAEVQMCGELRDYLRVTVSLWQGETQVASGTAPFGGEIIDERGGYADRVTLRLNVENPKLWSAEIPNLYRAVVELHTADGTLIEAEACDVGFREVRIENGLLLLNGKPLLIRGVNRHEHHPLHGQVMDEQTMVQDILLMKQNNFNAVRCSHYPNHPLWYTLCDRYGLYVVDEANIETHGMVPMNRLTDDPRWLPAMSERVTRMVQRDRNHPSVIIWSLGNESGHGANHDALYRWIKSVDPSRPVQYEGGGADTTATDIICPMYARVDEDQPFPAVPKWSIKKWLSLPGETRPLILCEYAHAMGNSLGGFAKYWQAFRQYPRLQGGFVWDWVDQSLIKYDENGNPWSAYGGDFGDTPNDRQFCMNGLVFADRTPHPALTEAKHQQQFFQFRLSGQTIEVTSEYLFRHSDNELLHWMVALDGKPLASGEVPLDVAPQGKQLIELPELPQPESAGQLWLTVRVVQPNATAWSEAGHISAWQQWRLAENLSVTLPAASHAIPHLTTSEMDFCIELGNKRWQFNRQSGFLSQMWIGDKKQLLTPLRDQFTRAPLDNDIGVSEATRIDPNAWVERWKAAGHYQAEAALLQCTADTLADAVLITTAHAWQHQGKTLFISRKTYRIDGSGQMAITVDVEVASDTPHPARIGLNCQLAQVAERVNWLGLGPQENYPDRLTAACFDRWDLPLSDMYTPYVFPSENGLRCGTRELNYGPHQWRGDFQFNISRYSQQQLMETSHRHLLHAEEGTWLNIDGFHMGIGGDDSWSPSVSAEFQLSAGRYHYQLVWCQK
Broad substrate specificity ATP-binding cassette transporter ABCG2, sequence (Q9UNQ0 whole entry): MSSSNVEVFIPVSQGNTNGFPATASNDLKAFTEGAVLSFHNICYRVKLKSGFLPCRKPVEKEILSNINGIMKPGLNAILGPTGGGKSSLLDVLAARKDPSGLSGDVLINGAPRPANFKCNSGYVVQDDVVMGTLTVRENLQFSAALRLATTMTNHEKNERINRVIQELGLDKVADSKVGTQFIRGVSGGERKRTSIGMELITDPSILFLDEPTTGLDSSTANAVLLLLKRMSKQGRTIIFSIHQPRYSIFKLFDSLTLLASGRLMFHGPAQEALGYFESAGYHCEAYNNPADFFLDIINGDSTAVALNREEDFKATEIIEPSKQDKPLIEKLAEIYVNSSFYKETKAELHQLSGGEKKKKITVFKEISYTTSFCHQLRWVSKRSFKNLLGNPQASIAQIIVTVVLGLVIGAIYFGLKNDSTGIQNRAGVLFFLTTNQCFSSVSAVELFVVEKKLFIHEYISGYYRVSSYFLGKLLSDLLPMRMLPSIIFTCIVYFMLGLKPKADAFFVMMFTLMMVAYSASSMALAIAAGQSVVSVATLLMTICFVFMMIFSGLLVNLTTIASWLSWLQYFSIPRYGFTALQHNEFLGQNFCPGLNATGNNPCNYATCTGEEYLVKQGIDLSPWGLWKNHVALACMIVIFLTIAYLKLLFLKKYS

With `CC(=O)c1sc(NC(=O)C2(F)C(F)(F)C(F)(F)C(F)(F)C(F)(F)C2(F)F)nc1C`, the EC50 in assay [1] is > 120 µM (not active); in assay [2], > 120 µM (not active); in [3], 32.2 µM (active). The figures for the AC50 in [4] and in assay [5] were 4.23 µM (active) and 22.6 µM (active), respectively.

Take `NCC12CC3CC(C1)CC(c1ccc(Br)cc1)(C3)C2`: the AC50 in assay [6] was 16.3 µM (active); in assay [7], 32 µM (active); in assay [8], 5.67 µM (active); in assay [9] it was 17.1 µM (active).

Take `COc1ccc(N2CCN(C(=O)c3ccc4c(c3)CC(c3ccccc3)OC4=O)CC2)cc1` (stereo not drawn): the IC50 in assay [10] is > 80 µM (inactive).

As for `CC(Sc1nc(-c2ccccc2)cc(C(F)(F)F)n1)C(=O)N1CCCCC1` (stereo not drawn), the values for the EC50 in [11] and in assay [12] were 0.214 µM (active) and 0.0143 µM (active), respectively.

For the molecule `CC(C)C(NS(=O)(=O)c1ccccc1)C(=O)OCc1cc([N+](=O)[O-])cc2c1OCOC2` (stereo not drawn), the IC50 in assay [13] was > 50 µM (not active). The EC50 in assay [14] was 1.57 µM (active).

Consider `O=C(NCCCn1ccnc1)Nc1cccc(Cl)c1`, for which, in assay [15], the AC50 is 116 µM (active).

Regarding `N#Cc1c(Nc2ccccc2)[n+]([O-])c2ccc(Cl)cc2[n+]1[O-]`, the results for the AC50 in [16], in [17] and in assay [18] were 22.5 µM (active), 38.5 µM (active) and 20.7 µM (active), respectively.

The values are drawn from ChEMBL document CHEMBL1201862, “PubChem BioAssay data set” (2004).
